# Tests used:
# [1] = test system: MIA PaCa-2 cells; test: Cell viability (MTT) assay; assay type: cell-based; settings: Homo sapiens, 24 h of exposure, read-out: 50% inhibitory concentration (IC50)
# Description: Briefly, MIA PaCa-2 cells were seeded (5 × 10^3 cells/well) in 96-well culture plates. After 24 h of incubation in a humidified incubator at 37 °C with 5% CO2, the medium of adherent cells was replaced with serum-free culture medium and incubated with 200 μL of serial dilutions of HSA-NPs (0.01~1000 μg/mL) and MPT0B291-HSAX NPs ([…]). After another 24 h, 100 µL of MTT (500 μg/mL in PBS, pH 7.4) was added and incubated at 37 °C for 2 h. The medium was then removed, and 100 µL of DMSO was added to each well to dissolve the crystals. The optical density (OD) was measured at 540 nm using a microplate reader (Cytation™ 3 Cell Imaging Multi-Mode Reader, BioTek, Winooski, VT, USA). The cell survival rate was calculated as follows:(3) Cell survival rate (%)=Absorbance value of test solution group /Absorbance value of blank solution group ×100%
# [2] = In vitro drug release by dialysis bag; assay type: physicochemical; settings: 0.25 mg/mL in propylene glycol, pH 7.4 phosphate buffer with 1% Tween 80, 37 °C
# Description: The dialysis bag was subsequently placed into 25 mL of release medium (PBS) containing 1% v/v Tween 80. The temperature was maintained at 37.0 ± 0.5 °C, and the medium was stirred at a speed of 100 rpm. MPT0B291 which had been dissolved in propylene glycol (free MPT0B291; 0.25 mg/mL) was used as a control and was treated in the same manner. During a period of 48 h, the surrounding environment was maintained by replacing 2 mL of the release medium with an equal volume of fresh medium at regular intervals. The extraction solution was solubilized in 500 μL of acetonitrile and assayed by HPLC.
# [3] = test system: healthy Balb/c female mice; test: Maximum tolerated dose, single i.v. dose; assay type: in vivo
# Description: The single-dose study was conducted using healthy female mice with four animals per group.
# [4] = In vivo pharmacokinetic study after intravenous administration; settings: male, Sprague-Dawley, rat, plasma, rats, i.v., 5 mg/kg body weight, mean ± SD (n = 4)
# Description: Male Sprague-Dawley rats (250 ± 15 g) were divided into two groups (with four rats per group). […] All collected blood samples were centrifuged at 4000 rpm and 4 °C for 10 min, and supernatant plasma samples were obtained and frozen at -80 °C for further analysis. Quantitative analysis of MPT0B291 in rat plasma by an ultra-precision liquid chromatographic tandem mass spectroscopic (UPLC-MS/MS) method was performed using an Agilent 1290 Infinity II LC System (Agilent, Wilmington, DE, USA) coupled with an Agilent 6470 triple quadrupole LC/MS system (Agilent Technologies, Santa Clara, CA, USA). Optimized chromatographic separation of MPT0B291 was conducted with an ACQUITY UPLC BEH C18 column (1.7 μm, 2.1 × 100 mm; Waters, Milford, MA, USA) at an oven temperature of 40 °C. The mobile phase was 0.1% (v/v) formic acid in water (mobile phase A) and acetonitrile containing 0.1% (v/v) formic acid (mobile phase B) with gradient elution at a flow rate of 0.3 mL/min. All analytical procedures were evaluated with positive electrospray ionization (ESI). The LC gradient was programmed in linear steps as follows: 0~0.5 min, 5% mobile phase B (v/v); 0.5~1 min, 5% mobile phase B to 100% mobile phase B (v/v); 1~2.8 min, 100% mobile phase B; 2.8~3 min, 100% mobile phase B to 5% mobile phase B (v/v); and 3~4 min, 5% mobile phase B (v/v). Quantification was achieved using the multiple reaction monitoring (MRM) mode at m/z 344.1 → 91.0 for MPT0B291. The following PK parameters were determined: the area under the concentration-time curve (AUC), maximum peak concentration (Cmax), time of maximum peak concentration (Tmax), and mean residence time (MRT). These parameters were determined by DAS software vers. 2.0. All data are presented as mean ± standard deviation (SD).
smiles,measurement,setting,value
O=C(/C=C/c1cccc(S(=O)(=O)n2ccc3cccnc32)c1)NO [MPT0B291],IC50,[1],4.71 µM
same,Drug released within 1 h,[2],60%
same,Drug released within 8 h,[2],~100%
same,Mortality after single i.v. dose of 150 mg/kg BW,[3]; n = 4,one mouse was found dead after 24 h and another one also died on the following day
same,Maximum tolerated dose (MTD),"[3]; single dose, i.v. route",approximately 75 mg/kg BW
same,AUC(0-inf),[4],293 ± 39.2 ng·h/mL
same,AUC(0-t),[4]; read-out: AUC0–24h,291 ± 39.7 ng·h/mL
same,clearance,[4]; read-out: CL (clearance),288 ± 36.7 mL/min/kg
same,MRT,[4]; read-out: MRT (mean residence time),1.86 ± 0.66 h
same,Vd,[4]; read-out: Vss (volume of distribution at steady state),32.6 ± 12.3 L/kg
same,half-life,[4]; read-out: t1/2 (elimination half-life) (converted),124 ± 38.4 min

# Reference: paper PMC8541575, “Optimization and Development of Selective Histone Deacetylase Inhibitor (MPT0B291)-Loaded Albumin Nanoparticles for Anticancer Therapy” (Pharmaceutics, 2021)
